Assay results as given in paper PMC11053681, “Gold(I) and Silver(I) Complexes Containing Hybrid Sulfonamide/Thiourea Ligands as Potential Leishmanicidal Agents” (Pharmaceutics, 2024).
Entries after “also recorded” stand apart in the source; their conditions may differ.

Experiments:
Vero cells = test: Cytotoxicity assay on Vero cells (resazurin); assay type: cell-based, African green monkey; conditions: 24 h treatment
How it was run: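 Vero cells seeded at 5 × 10^5 cells/well, grown 24 h at 37 °C, 5% CO2 in RPMI with 10% FBS. Compounds tested in triplicate by serial dilution from 500 µM to 3.9 µM for 24 h. Viability read as resazurin fluorescence.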

[1] = tested on: RAW macrophages infected with Leishmania infantum; test: Infectivity test / infection rate in RAW macrophages; assay type: cell-based; conditions: three concentrations (below IC50, IC50, above IC50), 24 h treatment
Method: For the infection of RAW macrophages adhered to the plates, we used parasites in the promastigote form of Leishmania infantum, in the stationary phase, in a ratio of 10:1 (promastigotes/macrophages).
Macrophages were plated in the amount of 5 × 10^4 cells per well, in 96-well plates, which were kept in a CO2 oven at 37 °C for 24 h. The parasites were plated at a concentration of 10:1. The plates were kept in a CO2 oven for 12 h until the parasites infected the cells. […] Plates were fixed with paraformol for further evaluation. Plaques were evaluated by counting parasites within 200 cells under the EVOS Cell Imaging System (Thermo Scientific, Waltham, MA, USA) microscope by staining with propidium iodide.
In view of the data obtained, the six most promising compounds (HL1^Ch, HL2^Ph, Ag3, Ag4, Ag6 and Au2) were selected for carrying out the infection rate test against the L. infantum parasite. […] This test was performed at four stages. The first step determined the percentage of the amount in 200 infected macrophages per parasite, the second determined the percentage of parasites that infects 100 cells/macrophages, the third determined the average percentage of parasites that infects 200 cells/macrophages and, finally, the fourth step indicated the infection rate, that is, the result of the amount of Leishmania per macrophage (obtained from the third step) multiplied by the percentage of infected macrophages. Figure 5 presents the graphs of the infection rates, while the other graphs can be found in Figure S7.4.

Cc1ccc(S(=O)(=O)NNC(Nc2ccc(F)cc2)=[S][Ag+][S]=C(NNS(=O)(=O)c2ccc(C)cc2)Nc2ccc(F)cc2)cc1.O=[N+]([O-])[O-] [Ag3, [Ag(HL3^FPh)2]NO3]
CC50 (Vero cells): > 500 µM | Infection rate of L. infantum in macrophages, in words [1]: able to inhibit the parasite infection inside the cells even at lower concentrations than that determined by their IC50 values; also recorded: able to inhibit the parasite infection even at lower concentrations than that of their IC50 values
